Laboratory results as given in US5043353A, “A80789 polyether antibiotic” (Eli Lilly and Company, priority 1989, dated 1991).

System: Culture A80789
Test: Antibiotic sensitivity disc test on the producing culture
Type: cell-based, Streptomyces hygroscopicus
Details: ISP No. 2 agar
Procedure: Resistance to antibiotics was measured by padding antibiotic sensitivity discs onto the surface of seeded ISP No. 2 agar plates. Resistance was scored as (+) when no zone of inhibition was observed and as (-) when a zone of inhibition was observed.

| Molecule | Resistance of culture to antibiotic (disc 10 mcg) | Resistance of culture to antibiotic (disc 30 mcg) | further results |
| --- | --- | --- | --- |
| CO[C@H]1/C=C/O[C@@]2(C)Oc3c(C)c(O)c4c(O)c(c(/C=N/N5CCN(C)CC5)c(O)c4c3C2=O)NC(=O)/C(C)=C\C=C\[C@H](C)[C@H](O)[C@@H](C)[C@@H](O)[C@@H](C)[C@H](OC(C)=O)[C@@H]1C [rifampin] |  |  | Resistance of culture to antibiotic (disc 5 mcg): resistant |
| [H]/N=C(/N)N[C@H]1[C@H](O)[C@@H](O)[C@H](O[C@@H]2O[C@@H](C)[C@](O)(C=O)[C@H]2O[C@@H]2O[C@@H](CO)[C@H](O)[C@@H](O)[C@@H]2NC)[C@@H](N/C(N)=N\[H])[C@@H]1O [streptomycin] | sensitive |  |  |
| CN(C)[C@@H]1C(=O)C(C(N)=O)=C(O)[C@@]2(O)C(=O)C3=C(O)c4c(O)cccc4[C@@](C)(O)[C@H]3C[C@@H]12 [tetracycline] |  | sensitive |  |
| NC[C@H]1O[C@H](O[C@H]2[C@H](O)[C@@H](O[C@H]3O[C@H](CO)[C@@H](O)[C@H](N)[C@H]3O)[C@H](N)C[C@@H]2N)[C@H](N)C[C@@H]1O [tobramycin] | sensitive |  |  |
| CN[C@H](CC(C)C)C(=O)N[C@H]1C(=O)N[C@@H](CC(N)=O)C(=O)N[C@H]2C(=O)N[C@H]3C(=O)N[C@H](C(=O)N[C@H](C(=O)O)c4cc(O)cc(O)c4-c4cc3ccc4O)[C@H](O)c3ccc(c(Cl)c3)Oc3cc2cc(c3O[C@@H]2O[C@H](CO)[C@@H](O)[C@H](O)[C@H]2O[C@H]2C[C@](C)(N)[C@H](O)[C@H](C)O2)Oc2ccc(cc2Cl)[C@H]1O [vancomycin] |  | sensitive |  |
| gentamicin | sensitive |  |  |
| neomycin |  | sensitive |  |
